EP0726263A2, “Herbicidal (1,3,4)oxadiazoles and thiadiazoles” (American Cyanamid Company, priority 1995, dated 1996)

Key:
Format in all cases: in vivo
Chenopodium album [1] = test: Herbicidal activity, preemergence test; settings: pre; sprayed onto soil, 800 g of active material per hectare; evaluated 3 weeks after treatment
Procedure: (§1) To evaluate their herbicidal activity, compounds according to the invention are tested using a representative range of plants: TRZAW Triticum aestivum HORVW Hordeum vulgare ZEAMX Zea mays GOSHI Gossypium hirsutum HELAN Helianthus annuus GLYMA Glycine max ALOMY Alopecurus myosuroides SETVI Setaria viridis ECHCG Echinochloa crus-galli GALAP Galium aparine STEME Stellaria media VERPE Veronica persica VIOAR Viola arvensis IPOHE Ipomoea hederacea LAMPU Lamium purpureum PAPRH Papaver rhoeas MATIN Matricaria inodora AMARE Amaranthus retroflexus ABUTH Abutilon theophrasti AMBEL Ambrosia artemisifolia CHEAL Chenopodium album
(§2) The tests fall into two categories, preemergence and postemergence. The preemergence tests involve spraying a liquid formulation of the compound onto the soil in which the seeds have recently been sown. The postemergence tests involve spraying a liquid formulation of the compound onto seedling plants.
(§3) The soil used in the tests is a prepared horticultural loam.
(§4) The formulations used in the tests are prepared from solutions of the test compounds in acetone containing 0.4% by weight of an alkylphenol/ethylene oxide condensate available under the trade mark TRITON X-155. These acetone solutions are diluted with water and the resulting formulations applied at dosage levels corresponding to 800 g of active material per hectare in a volume equivalent to 900 litres per hectare.
(§5) In the preemergence tests untreated sown soil and in the postemergence tests untreated soil bearing seedling plants are used as controls.
(§6) Results of herbicide evaluation are expressed on a rating scale (0-9). The scale is based upon a visual observation of plant stand, vigor, malformation, size, chlorosis, and general plant appearance as compared to a control. Preemergence and postemergence treatments are evaluated at 3 and 2 weeks after treatment, respectively.

Matricaria inodora [2] = test: Herbicidal activity, preemergence test; settings: pre; sprayed onto soil, 800 g of active material per hectare; evaluated 3 weeks after treatment
Procedure: as §1, §2, §3, §4, §5, §6

Lamium purpureum [3] = test: Herbicidal activity, preemergence test; settings: pre; sprayed onto soil, 800 g of active material per hectare; evaluated 3 weeks after treatment
Procedure: as §1, §2, §3, §4, §5, §6

Stellaria media [4] = test: Herbicidal activity, preemergence test; settings: pre; sprayed onto soil, 800 g of active material per hectare; evaluated 3 weeks after treatment
Procedure: as §1, §2, §3, §4, §5, §6

Gossypium hirsutum [5] = test: Herbicidal activity, preemergence test; settings: pre; sprayed onto soil, 800 g of active material per hectare; evaluated 3 weeks after treatment
Procedure: as §1, §2, §3, §4, §5, §6

Glycine max [6] = test: Herbicidal activity, preemergence test; settings: pre; sprayed onto soil, 800 g of active material per hectare; evaluated 3 weeks after treatment
Procedure: as §1, §2, §3, §4, §5, §6

Ipomoea hederacea [7] = test: Herbicidal activity, preemergence test; settings: pre; sprayed onto soil, 800 g of active material per hectare; evaluated 3 weeks after treatment
Procedure: as §1, §2, §3, §4, §5, §6

Papaver rhoeas [8] = test: Herbicidal activity, preemergence test; settings: pre; sprayed onto soil, 800 g of active material per hectare; evaluated 3 weeks after treatment
Procedure: as §1, §2, §3, §4, §5, §6

Setaria viridis [9] = test: Herbicidal activity, preemergence test; settings: pre; sprayed onto soil, 800 g of active material per hectare; evaluated 3 weeks after treatment
Procedure: as §1, §2, §3, §4, §5, §6

Amaranthus retroflexus [10] = test: Herbicidal activity, preemergence test; settings: pre; sprayed onto soil, 800 g of active material per hectare; evaluated 3 weeks after treatment
Procedure: as §1, §2, §3, §4, §5, §6

Abutilon theophrasti [11] = test: Herbicidal activity, preemergence test; settings: pre; sprayed onto soil, 800 g of active material per hectare; evaluated 3 weeks after treatment
Procedure: as §1, §2, §3, §4, §5, §6

Triticum aestivum [12] = test: Herbicidal activity, preemergence test; settings: pre; sprayed onto soil, 800 g of active material per hectare; evaluated 3 weeks after treatment
Procedure: as §1, §2, §3, §4, §5, §6

Zea mays [13] = test: Herbicidal activity, preemergence test; settings: pre; sprayed onto soil, 800 g of active material per hectare; evaluated 3 weeks after treatment
Procedure: as §1, §2, §3, §4, §5, §6

Veronica persica [14] = test: Herbicidal activity, preemergence test; settings: pre; sprayed onto soil, 800 g of active material per hectare; evaluated 3 weeks after treatment
Procedure: as §1, §2, §3, §4, §5, §6

Alopecurus myosuroides [15] = test: Herbicidal activity, preemergence test; settings: pre; sprayed onto soil, 800 g of active material per hectare; evaluated 3 weeks after treatment
Procedure: as §1, §2, §3, §4, §5, §6

Hordeum vulgare [16] = test: Herbicidal activity, preemergence test; settings: pre; sprayed onto soil, 800 g of active material per hectare; evaluated 3 weeks after treatment
Procedure: as §1, §2, §3, §4, §5, §6

Galium aparine [17] = test: Herbicidal activity, preemergence test; settings: pre; sprayed onto soil, 800 g of active material per hectare; evaluated 3 weeks after treatment
Procedure: as §1, §2, §3, §4, §5, §6

Ambrosia artemisifolia [18] = test: Herbicidal activity, preemergence test; settings: pre; sprayed onto soil, 800 g of active material per hectare; evaluated 3 weeks after treatment
Procedure: as §1, §2, §3, §4, §5, §6

Chenopodium album [19] = test: Herbicidal activity, postemergence test; settings: post; sprayed onto seedling plants, 800 g of active material per hectare; evaluated 2 weeks after treatment
Procedure: as §1, §2, §3, §4, §5, §6

Matricaria inodora [20] = test: Herbicidal activity, postemergence test; settings: post; sprayed onto seedling plants, 800 g of active material per hectare; evaluated 2 weeks after treatment
Procedure: as §1, §2, §3, §4, §5, §6

Lamium purpureum [21] = test: Herbicidal activity, postemergence test; settings: post; sprayed onto seedling plants, 800 g of active material per hectare; evaluated 2 weeks after treatment
Procedure: as §1, §2, §3, §4, §5, §6

Stellaria media [22] = test: Herbicidal activity, postemergence test; settings: post; sprayed onto seedling plants, 800 g of active material per hectare; evaluated 2 weeks after treatment
Procedure: as §1, §2, §3, §4, §5, §6

Gossypium hirsutum [23] = test: Herbicidal activity, postemergence test; settings: post; sprayed onto seedling plants, 800 g of active material per hectare; evaluated 2 weeks after treatment
Procedure: as §1, §2, §3, §4, §5, §6

Glycine max [24] = test: Herbicidal activity, postemergence test; settings: post; sprayed onto seedling plants, 800 g of active material per hectare; evaluated 2 weeks after treatment
Procedure: as §1, §2, §3, §4, §5, §6

Ipomoea hederacea [25] = test: Herbicidal activity, postemergence test; settings: post; sprayed onto seedling plants, 800 g of active material per hectare; evaluated 2 weeks after treatment
Procedure: as §1, §2, §3, §4, §5, §6

Papaver rhoeas [26] = test: Herbicidal activity, postemergence test; settings: post; sprayed onto seedling plants, 800 g of active material per hectare; evaluated 2 weeks after treatment
Procedure: as §1, §2, §3, §4, §5, §6

Setaria viridis [27] = test: Herbicidal activity, postemergence test; settings: post; sprayed onto seedling plants, 800 g of active material per hectare; evaluated 2 weeks after treatment
Procedure: as §1, §2, §3, §4, §5, §6

Amaranthus retroflexus [28] = test: Herbicidal activity, postemergence test; settings: post; sprayed onto seedling plants, 800 g of active material per hectare; evaluated 2 weeks after treatment
Procedure: as §1, §2, §3, §4, §5, §6

Abutilon theophrasti [29] = test: Herbicidal activity, postemergence test; settings: post; sprayed onto seedling plants, 800 g of active material per hectare; evaluated 2 weeks after treatment
Procedure: as §1, §2, §3, §4, §5, §6

Triticum aestivum [30] = test: Herbicidal activity, postemergence test; settings: post; sprayed onto seedling plants, 800 g of active material per hectare; evaluated 2 weeks after treatment
Procedure: as §1, §2, §3, §4, §5, §6

Zea mays [31] = test: Herbicidal activity, postemergence test; settings: post; sprayed onto seedling plants, 800 g of active material per hectare; evaluated 2 weeks after treatment
Procedure: as §1, §2, §3, §4, §5, §6

Veronica persica [32] = test: Herbicidal activity, postemergence test; settings: post; sprayed onto seedling plants, 800 g of active material per hectare; evaluated 2 weeks after treatment
Procedure: as §1, §2, §3, §4, §5, §6

Alopecurus myosuroides [33] = test: Herbicidal activity, postemergence test; settings: post; sprayed onto seedling plants, 800 g of active material per hectare; evaluated 2 weeks after treatment
Procedure: as §1, §2, §3, §4, §5, §6

Hordeum vulgare [34] = test: Herbicidal activity, postemergence test; settings: post; sprayed onto seedling plants, 800 g of active material per hectare; evaluated 2 weeks after treatment
Procedure: as §1, §2, §3, §4, §5, §6

Galium aparine [35] = test: Herbicidal activity, postemergence test; settings: post; sprayed onto seedling plants, 800 g of active material per hectare; evaluated 2 weeks after treatment
Procedure: as §1, §2, §3, §4, §5, §6

Ambrosia artemisifolia [36] = test: Herbicidal activity, postemergence test; settings: post; sprayed onto seedling plants, 800 g of active material per hectare; evaluated 2 weeks after treatment
Procedure: as §1, §2, §3, §4, §5, §6

C[C@H](NC(=O)c1nnc(-c2ccc(C(C)(C)C)cc2)o1)c1ccccc1 [Example 16]
8 (approaching complete kill): LAMPU control rating (0-9) (Lamium purpureum [3]) | SETVI control rating (0-9) (Setaria viridis [9]) | IPOHE control rating (0-9) (Ipomoea hederacea [25]) | ABUTH control rating (0-9) (Abutilon theophrasti [29]) | AMBEL control rating (0-9) (Ambrosia artemisifolia [36])
0 (no effect): GOSHI control rating (0-9) (Gossypium hirsutum [5]) | GLXMA control rating (0-9) (Glycine max [6]) | TRZAW control rating (0-9) (Triticum aestivum [12]) | ZEAMX control rating (0-9) (Zea mays [13]) | ALOMY control rating (0-9) (Alopecurus myosuroides [15]) | HORVW control rating (0-9) (Hordeum vulgare [16]) | GALAP control rating (0-9) (Galium aparine [17])
4 (injury): GLXMA control rating (0-9) (Glycine max [24]) | HORVW control rating (0-9) (Hordeum vulgare [34])
3 (moderate effect): AMBEL control rating (0-9) (Ambrosia artemisifolia [18]) | ZEAMX control rating (0-9) (Zea mays [31]) | ALOMY control rating (0-9) (Alopecurus myosuroides [33])
1 (trace effect): IPOHE control rating (0-9) (Ipomoea hederacea [7]) | ABUTH control rating (0-9) (Abutilon theophrasti [11])
6 (herbicidal effect): STEME control rating (0-9) (Stellaria media [4])
7 (good herbicidal effect): CHEAL control rating (0-9) (Chenopodium album [1]) | CHEAL control rating (0-9) (Chenopodium album [19]) | PAPRH control rating (0-9) (Papaver rhoeas [26]) | GALAP control rating (0-9) (Galium aparine [35])
9 (complete kill): MATIN control rating (0-9) (Matricaria inodora [2]) | PAPRH control rating (0-9) (Papaver rhoeas [8]) | AMARE control rating (0-9) (Amaranthus retroflexus [10]) | VERPE control rating (0-9) (Veronica persica [14]) | MATIN control rating (0-9) (Matricaria inodora [20]) | LAMPU control rating (0-9) (Lamium purpureum [21]) | STEME control rating (0-9) (Stellaria media [22]) | GOSHI control rating (0-9) (Gossypium hirsutum [23]) | SETVI control rating (0-9) (Setaria viridis [27]) | AMARE control rating (0-9) (Amaranthus retroflexus [28]) | VERPE control rating (0-9) (Veronica persica [32])
2 (slight effect): TRZAW control rating (0-9) (Triticum aestivum [30])
